20 molecules from ChEMBL document CHEMBL1128550, “Nonclassical 2,4-diamino-6-(aminomethyl)-5,6,7,8-tetrahydroquinazoline antifolates: synthesis and biological activities” (J Med Chem, 1995) can be followed below.

The term IC50 denotes the point on the concentration scale where inhibition reaches its midpoint. A lower IC50 goes with greater potency. A word on the GI50: it is the concentration that inhibits growth by half.

Experiment [1] deals with T1, Dihydrofolate reductase (Rattus norvegicus, UniProt Q920D2).
T1 sequence (Q920D2 whole entry): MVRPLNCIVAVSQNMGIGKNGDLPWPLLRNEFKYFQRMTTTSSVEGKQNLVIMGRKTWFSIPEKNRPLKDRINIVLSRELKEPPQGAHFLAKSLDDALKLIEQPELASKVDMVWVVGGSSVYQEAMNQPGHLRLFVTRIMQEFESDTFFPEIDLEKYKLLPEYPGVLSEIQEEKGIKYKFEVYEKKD
As to the kind of experiment: Inhibitory activity against purified dihydrofolate reductase from rat.

The target in experiment [2] is T2, Bifunctional dihydrofolate reductase-thymidylate synthase (Toxoplasma gondii, UniProt Q07422).
T2 sequence (Q07422 whole entry): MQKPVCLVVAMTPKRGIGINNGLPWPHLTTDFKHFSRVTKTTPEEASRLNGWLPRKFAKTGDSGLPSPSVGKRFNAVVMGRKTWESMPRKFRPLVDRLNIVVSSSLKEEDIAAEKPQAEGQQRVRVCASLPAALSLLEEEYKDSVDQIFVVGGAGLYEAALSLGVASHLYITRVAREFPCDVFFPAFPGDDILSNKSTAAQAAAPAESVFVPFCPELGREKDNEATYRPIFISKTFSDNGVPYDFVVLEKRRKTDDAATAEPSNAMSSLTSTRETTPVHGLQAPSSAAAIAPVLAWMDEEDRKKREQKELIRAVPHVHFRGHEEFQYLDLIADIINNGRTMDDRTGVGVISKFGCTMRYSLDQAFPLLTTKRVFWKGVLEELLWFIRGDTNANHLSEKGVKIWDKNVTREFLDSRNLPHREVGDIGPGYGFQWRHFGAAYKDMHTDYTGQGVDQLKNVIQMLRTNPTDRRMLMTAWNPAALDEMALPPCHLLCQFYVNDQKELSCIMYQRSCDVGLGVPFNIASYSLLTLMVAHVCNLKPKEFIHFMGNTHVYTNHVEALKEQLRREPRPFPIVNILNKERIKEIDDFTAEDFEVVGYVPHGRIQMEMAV
Description: Inhibitory activity against purified Dihydrofolate reductase from Toxoplasma gondii.

In experiment [3] the target is T3, Dihydrofolate reductase (Pneumocystis carinii, UniProt P16184).
T3 sequence (P16184 whole entry): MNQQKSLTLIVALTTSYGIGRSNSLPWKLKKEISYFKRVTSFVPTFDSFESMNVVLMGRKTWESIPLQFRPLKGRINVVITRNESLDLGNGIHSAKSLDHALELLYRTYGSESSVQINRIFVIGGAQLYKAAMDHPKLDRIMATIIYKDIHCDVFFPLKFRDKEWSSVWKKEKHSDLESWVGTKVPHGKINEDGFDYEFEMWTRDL
Description: Inhibitory activity against purified dihydrofolate reductase from Pneumocystis carinii.

Experiment [4] deals with T2, Bifunctional dihydrofolate reductase-thymidylate synthase. As to the kind of experiment: Inhibitory activity against purified DHFR (Dihydrofolate reductase) from Toxoplasma gondii.
Experiment [5] addresses T3, Dihydrofolate reductase.
Description: Inhibitory activity against purified DHFR (Dihydrofolate reductase) from Pneumocystis carinii.
The target in experiment [6] is T1, Dihydrofolate reductase.
Description: Inhibitory activity against purified DHFR (Dihydrofolate reductase) from rat
A further experiment relates to NCI-H460. As to the kind of experiment: In vitro activity of compound against non-small cell lung cancer NCI-H460. It is filed as functional. As to conditions: Homo sapiens.
Experiment [7] has as its target T2, Bifunctional dihydrofolate reductase-thymidylate synthase. As to the kind of experiment: Inhibitory activity against purified DHFR (Dihydrofolate reductase) from Toxoplasma gondii.
A further experiment deals with K562. Description: In vitro activity of compound against leukemia K-562 cell line. It is filed as functional, Homo sapiens.

In the case of `C#CCN(CC1CCc2nc(N)nc(N)c2C1)c1cc(OC)c(OC)c(OC)c1` (stereo not given), the IC50 was determined as 74 nM against Dihydrofolate reductase [1], 12 nM in [2] and 119 nM against Dihydrofolate reductase [3].
Regarding `Nc1nc(N)c2c(n1)CCC(CN1CCc3ccccc31)C2` (stereo not given), the IC50 in [4] amounted to 27 nM; against Dihydrofolate reductase [5], 210 nM; against Dihydrofolate reductase [6] it was 160 nM.
On the same counts, the results for `CCOc1ccc(OCC)c(NCC2CCc3nc(N)nc(N)c3C2)c1` (stereo not given) are 140 nM, 1570 nM and 1470 nM.
For `Nc1nc(N)c2c(n1)CCC(CNc1ccc(Cl)c(Cl)c1)C2` (stereo not given), the 50% inhibitory concentration (IC50) against Dihydrofolate reductase [1] was found to be 150 nM; in [2], 110 nM; at Dihydrofolate reductase [3], 6800 nM.
Consider `Nc1nc(N)c2c(n1)CCC(CNc1cccc3ccccc13)C2` (stereo not given), for which the GI50 in the experiment on NCI-H460 worked out at 50 nM. Besides, the IC50 worked out at 36 nM in [7], 517 nM on Dihydrofolate reductase [5] and 139 nM at Dihydrofolate reductase [6].
Consider `Nc1nc(N)c2c(n1)CCC(CNc1cc(Cl)ccc1Cl)C2` (stereo not given), for which the concentration for half-maximal inhibition (IC50) turned out to be 97 nM in experiment [4], 410 nM against Dihydrofolate reductase [5] and 240 nM at Dihydrofolate reductase [6].
In the case of `CN(CC1CCc2nc(N)nc(N)c2C1)c1cccc2ccccc12` (stereo not given), the IC50 against Dihydrofolate reductase [1] was 47 nM; in experiment [2], 23 nM; on Dihydrofolate reductase [3] it was 100 nM. The same molecule displayed a GI50 with K562 of 40 nM.
As for `CN(CC1CCc2nc(N)nc(N)c2C1)c1ccc(Cl)c(Cl)c1` (stereo not given), the IC50 on Dihydrofolate reductase [1] came to 34 nM; in experiment [2], 21 nM; against Dihydrofolate reductase [3], 246 nM.
On the same counts, the results for `CCN(CC1CCc2nc(N)nc(N)c2C1)c1cc(OC)ccc1OC` (stereo not given) are 71 nM, 17 nM and 114 nM.
`COc1ccc(OC)c(N(C)CC2CCc3nc(N)nc(N)c3C2)c1` (stereo not given): the IC50 on Dihydrofolate reductase [1] is 260 nM; in [2], 15 nM; on Dihydrofolate reductase [3], 300 nM.
As to `Nc1nc(N)c2c(n1)CCC(CNc1ccc(Cl)cc1)C2` (stereo not given), the IC50 in experiment [4] stood at 78 nM; on Dihydrofolate reductase [5] it was 940 nM; against Dihydrofolate reductase [6] it was 128 nM.
The matching figures for `COc1cc(CN(C)CC2CCc3nc(N)nc(N)c3C2)cc(OC)c1OC` (stereo not given): 330 nM, 3100 nM and 1630 nM.
For the molecule `CN(CC1CCc2nc(N)nc(N)c2C1)c1ccc(Cl)cc1` (stereo not given), the values for the IC50 (on Dihydrofolate reductase [1]; in experiment [2]; at Dihydrofolate reductase [3]) were 67 nM, 22 nM and 171 nM, respectively.
The matching figures for `COc1cc(N(C)CC2CCc3nc(N)nc(N)c3C2)cc(OC)c1OC` (stereo not given): 38 nM, 7 nM and 95 nM.
The matching figures for `Nc1nc(N)c2c(n1)CCC(CNc1cccc(Br)c1)C2` (stereo not given): 227 nM, 30 nM and 330 nM.
On the same counts, the results for `CCOc1ccc(OCC)c(N(C)CC2CCc3nc(N)nc(N)c3C2)c1` (stereo not given) are 116 nM, 17 nM and 319 nM.
On to `Nc1nc(N)c2c(n1)CCC(CNc1c(Cl)cccc1Cl)C2` (stereo not given), for which the IC50 is 9.9 nM in [4], 502 nM against Dihydrofolate reductase [5] and 109 nM at Dihydrofolate reductase [6].
For `COc1cc(CNCC2CCc3nc(N)nc(N)c3C2)cc(OC)c1OC` (stereo not given), the 50% inhibitory concentration (IC50) stood at 12700 nM against Dihydrofolate reductase [1] and 18500 nM on Dihydrofolate reductase [3].
Turning to `COc1ccc(OC)c(NCC2CCc3nc(N)nc(N)c3C2)c1` (stereo not given), the IC50 at Dihydrofolate reductase [1] is 560 nM; in [2] it was 181 nM; against Dihydrofolate reductase [3], 1670 nM.
On to `COc1cc(NCC2CCc3nc(N)nc(N)c3C2)cc(OC)c1OC` (stereo not given), for which the IC50 was 54 nM in experiment [4] and 290 nM against Dihydrofolate reductase [6].
